Measured values taken from patent US20100190846A1, “MICROBICIDAL AGENT AND MICROBICIDAL COMPOSITION” (priority 2006, published 2010).

Tests used:
Assay in all cases: Agar dilution method microbicidal test
Format in all cases: cell-based
[1] = tested on: Bacillus subtilis MB-32; as to Growth on agar plate: key: +: grew; −: did not grow
Method in brief: (§1)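 MIC was determined by agar dilution in BHI agar at 0.25–4.0 mg/mL final compound, with DMSO as solvent (water for catechin). Plates were spot-inoculated with 10 μL of ~10^6/mL suspension and incubated 18 h at 37 °C. MIC was the lowest concentration preventing growth.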

[2] = tested on: Candida sp. As to Growth on agar plate: key: +: grew; −: did not grow.
Method in brief: (§2)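 Plate-based MIC determination: 10 μL aliquots of 100-fold diluted MHB cultures inoculated onto compound-containing BHI agar (0.25–4.0 mg/mL final), then incubated overnight (18 hours, 37° C).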

[3] = tested on: Enterococcus faecalis; also: key: +: grew; −: did not grow
Method in brief: as §1

[4] = tested on: Pseudomonas aeruginosa; as to Growth on agar plate: key: +: grew; −: did not grow
Method in brief: as §1

[5] = tested on: Salmonella sp. As to Growth on agar plate: key: +: grew; −: did not grow.
Method in brief: as §1

[6] = tested on: Staphylococcus aureus; as to Growth on agar plate: key: +: grew; −: did not grow
Method in brief: as §2

[7] = tested on: Streptococcus pneumoniae; as to Growth on agar plate: key: +: grew; −: did not grow
Method in brief: as §2

For catechin [reference compound], the “Growth on agar plate” value ([1]; 0.25 mg/mL) was “+”, the “Growth on agar plate” value ([1]; 0.5 mg/mL) was “+” and the “Growth on agar plate” value ([1]; 1.0 mg/mL) was “+”. The “Growth on agar plate” value ([1]; 2.0 mg/mL) was “−”, the “Growth on agar plate” value ([1]; 3.0 mg/mL) was “−” and the “Growth on agar plate” value ([1]; 4.0 mg/mL) was “−”. For the same substance, the MIC ([1]; BHI agar, 37° C., 18 hours) was 2000 µg/mL, the “Growth on agar plate” value ([2]; 0.25 mg/mL) was “+” and the “Growth on agar plate” value ([2]; 0.5 mg/mL) was “+”. The “Growth on agar plate” value ([2]; 1.0 mg/mL) was “−”, the “Growth on agar plate” value ([2]; 2.0 mg/mL) was “−” and the “Growth on agar plate” value ([2]; 3.0 mg/mL) was “−”. The “Growth on agar plate” value ([2]; 4.0 mg/mL) was “−”, the MIC ([2]; BHI agar, 37° C., 18 hours) was 1000 µg/mL and the “Growth on agar plate” value ([3]; 0.25 mg/mL) was “+”. The “Growth on agar plate” value ([3]; 0.5 mg/mL) was “+”, the “Growth on agar plate” value ([3]; 1.0 mg/mL) was “+” and the “Growth on agar plate” value ([3]; 2.0 mg/mL) was “+”. The “Growth on agar plate” value ([3]; 3.0 mg/mL) was “+”, the “Growth on agar plate” value ([3]; 4.0 mg/mL) was “+” and the “Growth on agar plate” value ([4]; 0.25 mg/mL) was “+”. The “Growth on agar plate” value ([4]; 0.5 mg/mL) was “+”, the “Growth on agar plate” value ([4]; 1.0 mg/mL) was “−” and the “Growth on agar plate” value ([4]; 2.0 mg/mL) was “−”. For the same substance, the “Growth on agar plate” value ([4]; 3.0 mg/mL) was “−”, the “Growth on agar plate” value ([4]; 4.0 mg/mL) was “−” and the MIC ([4]; BHI agar, 37° C., 18 hours) was 1000 µg/mL. The “Growth on agar plate” value ([5]; 0.25 mg/mL) was “+”, the “Growth on agar plate” value ([5]; 0.5 mg/mL) was “+” and the “Growth on agar plate” value ([5]; 1.0 mg/mL) was “+”. The “Growth on agar plate” value ([5]; 2.0 mg/mL) was “−”, the “Growth on agar plate” value ([5]; 3.0 mg/mL) was “−” and the “Growth on agar plate” value ([5]; 4.0 mg/mL) was “−”. The MIC ([5]; BHI agar, 37° C., 18 hours) was 2000 µg/mL, the “Growth on agar plate” value ([6]; 0.25 mg/mL) was “+” and the “Growth on agar plate” value ([6]; 0.5 mg/mL) was “+”. The “Growth on agar plate” value ([6]; 1.0 mg/mL) was “−”, the “Growth on agar plate” value ([6]; 2.0 mg/mL) was “−” and the “Growth on agar plate” value ([6]; 3.0 mg/mL) was “−”. The “Growth on agar plate” value ([6]; 4.0 mg/mL) was “−”, the MIC ([6]; BHI agar, 37° C., 18 hours) was 1000 µg/mL and the “Growth on agar plate” value ([7]; 0.25 mg/mL) was “+”. The “Growth on agar plate” value ([7]; 0.5 mg/mL) was “+”, the “Growth on agar plate” value ([7]; 1.0 mg/mL) was “−” and the “Growth on agar plate” value ([7]; 2.0 mg/mL) was “−”. For the same substance, the “Growth on agar plate” value ([7]; 3.0 mg/mL) was “−”, the “Growth on agar plate” value ([7]; 4.0 mg/mL) was “−” and the MIC ([7]; BHI agar, 37° C., 18 hours) was 1000 µg/mL.
